# Measurements from patent publication US12257339B2, “Phytocomplex and extract of a meristematic cell line selected from a plant belonging to the genus Rosa” (AETHERA BIOTECH S.R.L., priority 2019, dated 2025).
# Test: Antioxidant activity, DPPH method
# Type: biochemical
# Details: methanol extract/solution; absorbance at 517 nm
# Method: The assay of antioxidant activity was performed using the DPPH method. The assay with the DPPH (2,2-diphenyl-1-picryl-hydrazyl) radical has the aim of evaluating, in vitro, the antioxidant activity of the line of Rosa […] vis-à-vis a stained stable radical and measuring its disappearance by spectrophotometry. […] The Rc-F2P homogenate of meristematic cells of Rosa […] extracted in methanol and placed in an ultrasonic bath for 20 minutes. Various aliquots of solution were taken and they were added to a same amount of DPPH solution and brought to volume with methanol, so as to evaluate the antioxidant capacity of the sample at different concentrations. The results are expressed as EC50, i.e. as the concentration of the Rc-F2P phytocomplex capable of decreasing the initial absorbance of the radical at 517 nm by 50%. The result is then compared with that obtained from a methanol solution of ascorbic acid, used as a reference. The lower the EC50, the greater the antioxidant capacity.
compound,measurement,value
"O=C1O[C@H]([C@@H](O)CO)C(O)=C1O [Ascorbic acid, ascorbic acid]",EC50 (concentration decreasing the initial absorbance of the DPPH radical at 517 nm by 50%),3.19 ± 0.16 µg/mL
